Here are results for four compounds from patent publication US6399827B1, “Quaternary ammonium phosphate compound and method of preparing same” (SK Chemicals, priority 1997, dated 2002).

Type in all cases: cell-based
For one experiment, the system named is Bacteria. Put plainly: Biocidal effect test (MIC), bacteria. The conditions noted are these: serial dilution, 10^4 cfu/ml, 48 hours at 30° C., nutrient broth, turbidity read visually, range over 8 bacterial strains; for MIC: read-out: Minimal Inhibition Concentration (ppm) Bacteria. As for the experimental part: (§1) This test was carried out for the purpose of measuring a biocidal effect of the compounds obtained from examples 1, 3 and 4. A test material was diluted using a serial dilution method in a 96-multiwelled plate. 10^4 cfu/ml of microbes were inoculated in the diluted solution. After the microbes were cultivated for 48 hours at 30° C., MIC (Minimal Inhibition Concentration of microorganisms) was visually observed to decide whether or not microbial growth occurred from the turbidity. The growth medium was nutrient broth, DIFCO, and the strains used were as follows.
Enterobacter aerogenes ATCC 13048, Escherichia coli ATCC 11229, Micrococcus luteus ATCC 9431, Pseudomonas aeruginosa ATCC 15442, Shigella sonnei ATCC 9290, Staphylococcus epidermis ATCC 155, Staphylococcus aureus ATCC 6538 and Bacillus subtilis ATCC 6984.

A further experiment deals with Yeasts. Put plainly: Biocidal effect test (MIC), yeasts. The conditions noted are these: serial dilution, 10^4 cfu/ml, 48 hours at 30° C., nutrient broth, turbidity read visually, range over 4 yeast strains; for MIC: Saccharomyces cerevisiae, read-out: Minimal Inhibition Concentration (ppm) yeasts. Here is the method:
as §1
Candida albicans ATCC 10231, Rhodotorula rubra ATCC 9449, Cryptococcus neoformans ATCC 34144 and Saccharomyces cerevisiae ATCC 9763.

A further experiment has as its system Fungi. Put plainly: Biocidal effect test (MIC), fungi. The conditions noted are these: serial dilution, 10^4 cfu/ml, 48 hours at 30° C., nutrient broth, turbidity read visually, range over 4 fungal strains; for MIC: read-out: Minimal Inhibition Concentration (ppm) fungi. Here is the method:
as §1
Penicillium citrinum ATCC 98404, Trichoderma viridae ATCC 1287, Rhizopus oryzae ATCC 10404 and Aspergillus niger ATCC 9642.

Turning to `CC(C)(C)CC(C)(C)c1ccc(OCCOCC[N+](C)(C)Cc2ccccc2)cc1.[Cl-]` [A, N-dimethyl-N-[p-(α,α,γ,γ)-tetramethylbutylphenoxy]ethoxy ethyl-N-benzyl chloride], the “Minimal Inhibition Concentration (ppm) Bacteria” value with Bacteria was 12.5˜25 ppm. Further, in the experiment with Yeasts, the “Minimal Inhibition Concentration (ppm) yeasts” value was 12.5˜25 ppm. Moreover, the “Minimal Inhibition Concentration (ppm) fungi” value with Fungi is 25˜100 ppm.

Regarding `CC(C)(C)CC(C)(C)c1ccc(OCCOCC[N+](C)(C)Cc2ccccc2)cc1.O=P([O-])(O)O` [example 1, N-dimethyl-N-[p-(α,α,γ,γ)-tetramethylbutylphenoxy]ethoxy ethyl-N-benzyl ammonium phosphate], the “Minimal Inhibition Concentration (ppm) Bacteria” value with Bacteria was 6.3˜12.5 ppm. For the same compound, the “Minimal Inhibition Concentration (ppm) yeasts” value in the experiment on Yeasts is given as 6.3˜12.5 ppm. In addition, the “Minimal Inhibition Concentration (ppm) fungi” value in the experiment with Fungi was 25˜100 ppm.

On to `CCCCCCCCCCCCCC[N+]1(Cc2ccccc2)CCOCC1.Cl.N.[Cl-]` [B, 4-benzyl-4-tetradecyl morpholinium ammonium chloride], for which the figures for the MIC in the experiment on Bacteria, in the experiment on Yeasts and in the experiment with Fungi were 6.3 to 12.5 µg/mL, 6.3 to 25 µg/mL and 25 to 100 µg/mL, respectively.

`CCCCCCCCCCCCCC[N+]1(Cc2ccccc2)CCOCC1.N.O=P([O-])(O)O` [example 4, 4-benzyl-4-tetradecyl morpholinium ammonium phosphate]: the results for the MIC in the experiment on Bacteria, with Yeasts and in the experiment with Fungi were 6.3 to 12.5 µg/mL, 12.5 to 25 µg/mL and 25 to 100 µg/mL, respectively.
